These results are taken from ChEMBL document CHEMBL6127057, “Design and synthesis of Thieno[3, 2-b]pyridinone derivatives exhibiting potent activities against Mycobacterium tuberculosis in vivo by targeting Enoyl-ACP reductase” (Eur J Med Chem, 2024).

Type in all cases: functional
Assay [1] deals with Mycobacterium tuberculosis. Description: Antimycobacterial activity against compound resistant Mycobacterium tuberculosis 16-4B harboring InhA GCC to GAC (A211D) phenotype.
Assay [2] has as its system Mycobacterium tuberculosis. Description: Antimycobacterial activity against compound resistant Mycobacterium tuberculosis 8-8B harboring InhA CTG to GTG (L197V) phenotype.
Assay [3] has as its system Mycobacterium tuberculosis. Description: Antimycobacterial activity against compound resistant Mycobacterium tuberculosis 16-6B harboring InhA ATC to AGC (150S).
Assay [4] concerns Mycobacterium tuberculosis. Kind of assay: Selectivity ratio of MIC for compound resistant Mycobacterium tuberculosis 16-6B harboring InhA ATC to AGC (150S) phenotype to MIC for wild-type Mycobacterium tuberculosis H37Rv.
Assay [5] concerns Mycobacterium tuberculosis. Description: Antimycobacterial activity against compound resistant Mycobacterium tuberculosis 16-1B harboring InhA TCG to TTG (S186L).
In assay [6] the test system is Mycobacterium tuberculosis. Description: Selectivity ratio of MIC for compound resistant Mycobacterium tuberculosis 16-1B harboring InhA TCG to TTG (S186L) phenotype to MIC for wild-type Mycobacterium tuberculosis H37Rv.
In assay [7] the test system is Mycobacterium tuberculosis. Kind of assay: Selectivity ratio of MIC for compound resistant Mycobacterium tuberculosis 8-8B harboring InhA CTG to GTG (L197V) phenotype to MIC for wild-type Mycobacterium tuberculosis H37Rv.
Assay [8] relates to Mycobacterium tuberculosis. Kind of assay: Selectivity ratio of MIC for compound resistant Mycobacterium tuberculosis 16-4B harboring InhA GCC to GAC (A211D) phenotype to MIC for wild-type Mycobacterium tuberculosis H37Rv.

Each structure is given as a SMILES string. ≈ marks a conversion by molar mass, not a printed value. Some results are limits rather than exact numbers.

As a reminder, the MIC is the least concentration at which growth counts as inhibited. Low values mean inhibition by little substance, high ones a need for much substance. Take `Cc1cccc(-c2c(O)c3scc(Br)c3[nH]c2=O)c1`: the MIC in assay [1] was above 128 µg/mL; in assay [2], 32 µg/mL (≈ 95.2 µM); in assay [3], 16 µg/mL (≈ 47.6 µM); in assay [5], 16 µg/mL (≈ 47.6 µM). Further, the Selectivity ratio entry in assay [4], in assay [6], in assay [7] and in assay [8] was “<=16” each time.

On to `CO[C@H]1/C=C/O[C@@]2(C)Oc3c(C)c(O)c4c(O)c(c(/C=N/N5CCN(C)CC5)c(O)c4c3C2=O)NC(=O)/C(C)=C\C=C\[C@H](C)[C@H](O)[C@@H](C)[C@@H](O)[C@@H](C)[C@H](OC(C)=O)[C@@H]1C` [RIFAMPIN], for which the MIC in assay [1] amounted to 64 µg/mL (≈ 77.8 µM); in assay [2], 0.063 µg/mL (≈ 0.0766 µM); in assay [3] it was 0.063 µg/mL (≈ 0.0766 µM); in assay [5] it was 0.063 µg/mL (≈ 0.0766 µM).

For `NNC(=O)c1ccncc1` [ISONIAZID], the MIC in assay [1], in assay [2], in assay [3] and in assay [5] was 0.063 µg/mL (≈ 0.459 µM) each time.
